From the supplement of paper PMC10307832

How the values were obtained:
Experiment in all cases: relative viability (nuclei count vs DMSO), 5 days (fraction); higher = more cells survive
VX-702 + Navitoclax = compound: NC(=O)c1ccc(N(C(N)=O)c2c(F)cccc2F)nc1-c1ccc(F)cc1F [VX-702] + CC1(C)CCC(c2ccc(Cl)cc2)=C(CN2CCN(c3ccc(C(=O)NS(=O)(=O)c4ccc(N[C@H](CCN5CCOCC5)CSc5ccccc5)c(S(=O)(=O)C(F)(F)F)c4)cc3)CC2)C1 [Navitoclax] (partner 0.5 µM)
Outline: (§1)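 Relative viability is defined as nuclei in treated wells over nuclei in vehicle wells. Duplicate plates were run and medians reported. Lung cancer cell lines in 1536-well plates were dosed by pin tool one day after seeding, with one drug or with a fixed anchor-drug dose plus five library-drug doses (not always all listed) in √10 steps, and nuclei were counted after 5 days.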

VX-702 + Palbociclib = compound: NC(=O)c1ccc(N(C(N)=O)c2c(F)cccc2F)nc1-c1ccc(F)cc1F [VX-702] + CC(=O)c1c(C)c2cnc(Nc3ccc(N4CCNCC4)cn3)nc2n(C2CCCC2)c1=O [Palbociclib] (partner 0.5 µM)
Outline: as §1

Dabrafenib + Tozasertib = compound: CC(C)(C)c1nc(-c2cccc(NS(=O)(=O)c3c(F)cccc3F)c2F)c(-c2ccnc(N)n2)s1 [Dabrafenib] + Cc1cc(Nc2cc(N3CCN(C)CC3)nc(Sc3ccc(NC(=O)C4CC4)cc3)n2)n[nH]1 [Tozasertib] (partner 0.1 µM)
Outline: as §1

VX-702 + Linsitinib = compound: NC(=O)c1ccc(N(C(N)=O)c2c(F)cccc2F)nc1-c1ccc(F)cc1F [VX-702] + C[C@]1(O)C[C@@H](c2nc(-c3ccc4ccc(-c5ccccc5)nc4c3)c3c(N)nccn32)C1 [Linsitinib] (partner 1 µM)
Outline: as §1

Cell Line	relative viability (VX-702 + Navitoclax; first compound 0.02 µM)	relative viability (VX-702 + Navitoclax; first compound 0.2 µM)	relative viability (VX-702 + Navitoclax; first compound 0.6325 µM)	relative viability (VX-702 + Navitoclax; first compound 2 µM)	relative viability (VX-702 + Palbociclib; first compound 0.02 µM)	relative viability (VX-702 + Palbociclib; first compound 0.2 µM)	relative viability (VX-702 + Palbociclib; first compound 0.6325 µM)	relative viability (VX-702 + Palbociclib; first compound 2 µM)	relative viability (Dabrafenib + Tozasertib; first compound 0.003 µM)	relative viability (Dabrafenib + Tozasertib; first compound 0.009487 µM)	relative viability (Dabrafenib + Tozasertib; first compound 0.03 µM)	relative viability (Dabrafenib + Tozasertib; first compound 0.09487 µM)	relative viability (Dabrafenib + Tozasertib; first compound 0.3 µM)	relative viability (VX-702 + Linsitinib; first compound 0.02 µM)	relative viability (VX-702 + Linsitinib; first compound 0.2 µM)	relative viability (VX-702 + Linsitinib; first compound 0.6325 µM)	relative viability (VX-702 + Linsitinib; first compound 2 µM)
NCI-H3122	1.07	1.05	1.04	1.02	0.243	0.19	0.184	0.215	0.427	0.449	0.391	0.374	0.367	1.02	1.02	0.985	1.01
NCI-H520	1	0.985	0.953	1.1	0.229	0.275	0.191	0.231	0.431	0.486		0.417	0.408	0.962	0.936	0.915	0.925
HCC-44	0.93	0.99	0.881	1.09	1.01	1	0.955	0.98	0.959	0.974	0.976	0.836	0.989	0.618	0.671	0.617	0.65
NCI-H1915	0.766	0.725	0.849	0.916	0.549	0.499	0.526	0.546	0.46	0.458	0.391	0.328	0.41	1.11	1.14	1.08	1.08
NCI-H1395	1.48	1.05	1.02	1.37	0.565	0.531	0.654	0.623	0.718	0.633	0.762	0.667	0.648	0.965	1.28	0.976	1.47
NCI-H2126	0.832	0.814	0.779	0.698	0.365	0.323	0.341	0.35	0.809	0.865	0.858	0.862	0.882	0.726	0.697	0.67	0.634
NCI-H23	0.701	0.798	0.805	0.933	0.492	0.443	0.544	0.559		0.431	0.344	0.337	0.375	0.517	0.528	0.545	0.754
NCI-H441	0.705	0.632	0.511	0.871	0.19	0.235	0.204	0.162		0.555	0.632	0.571	0.495	0.699	0.429	0.369	0.747
UMC-11	0.274	0.293	0.303	0.359	0.319	0.327	0.336	0.309	0.189	0.202	0.19	0.197	0.231	0.949	0.985	0.851	1.08
LK-2	0.834	0.811	0.64	0.781	0.533	0.618	0.567	0.614	0.182	0.174		0.174	0.152	0.711	0.436		0.542
COR-L23	0.968	0.979	1.18	1.27	0.271	0.312	0.323	0.341	0.174	0.221	0.201	0.205	0.19	1.09	1.06	0.959	1.26
NCI-H2405	0.813	0.773	0.89	1.2	0.536	0.515	0.457	0.493		0.799		0.647	0.726	0.914	0.981	0.896	0.982
HOP-62	1.28	0.848	1.03	1.15	0.487	0.479	0.451	0.551	0.422	0.39	0.331	0.362	0.399	0.918	0.851	1.04	1.05
NCI-H1975	1.09	1.06	1.08	1.23	0.497	0.446	0.518	0.624	0.778	0.769	0.714	0.659	0.689	1.01	0.998	0.887	1.17
NCI-H2085	1.21	1.24	1.12	1.2	0.507	0.46	0.506	0.516	0.76	0.908	0.734	0.75	0.706	0.911	0.882	0.903	1.02
NCI-H460	1.15	1.03	1.08	1.37	0.187	0.156	0.21	0.118	0.0459	0.482	0.436	0.374	0.375	0.879	0.837	0.825	0.814
NCI-H1755	1.08	0.971	1.05	1.04	0.494	0.388	0.453	0.422	0.555	0.659	0.539	0.559	0.614	1.02	0.967	1.01	0.725
PC-14	1.06	1.01	1.04	1.03	0.519	0.595	0.561	0.732		0.631	0.647	0.527	0.624	0.965	0.943	1.04	1.04
201T	1.17	1.22	1.23	1.24	0.349	0.345	0.347	0.336	1.02	0.915	0.918	0.912	1.04	0.958	1.03	0.986	0.987
